Measurements from patent publication US7115718B2, “Haptens, immunogens, antibodies and conjugates to 2-oxo-3-hydroxy-LSD” (Randox :abpratproes :o, oted, priority 2001, dated 2006).

Legend:
[1] = test system: antibodies of U.S. Pat. No. 6,207,396 B1; settings: antibodies specific to d-LSD; cited from earlier work
[2] = test system: antibodies generated to immunogen 4; settings: cited from earlier work
[3] = test system: antibodies generated to immunogen 8; settings: cited from earlier work
[4] = test system: antiserum raised to immunogen A (hapten A-BSA); experiment: Competitive ELISA microtiter plate assay for 2-oxo-3-hydroxy-LSD, cross-reactivity with LSD and its metabolites; format: binding, sheep; settings: for % CR, percentage cross-reactivity based on specificity to 2-oxo-3-hydroxy LSD: % CR = IC50 2-oxo / IC50 LSD x 100; for % B/B0: B0 = absorbance at 0 ng/ml; for A450: absorbance at 450 nm, conjugate A (hapten A-HRP)
Protocol: An aqueous solution of the immunogen prepared in Example 5 was formulated with Freund's Complete Adjuvant (FCA) to form an emulsion consisting of 4 mg/ml inmmunogen in 50% (v/v) FCA. Three sheep were immunized with this emulsion (1° immunisation), 0.25 ml being subcutaneously -injected at each of four sites in the flank of each animal. The next immunisation (Boost 1) contained 2 mg/ml immunogen and subsequent immunizations (boosts 2 to 25) contained 1 mg/ml. All boosts were emulsified in 50% (v/v) Freund's Incomplete Adjuvant (FIA) and administered in the same manner as the 1° immunisation at monthly intervals for 1 year. Blood sampling took place 7 to 14 days after each boost. Each sample was processed to produce antiserum, which was further purified by caprylic acid and ammonium sulfate precipitation to yield an immunoglobulin G (IgG) fraction. The IgG fraction was evaluated by competitive ELISA microtitre plate assay, as described in Example 14 below.
The wells of an enhanced binding 96 well polystyrene ricrotiter plate were coated with the IgG fraction of the antiserum raised to immunogen A (Example 5) of the present invention, diluted in 10 mM Tris, pH8.5 (125 μl/well). The appropriate antibody coating dilution was determined using standard ELISA chequerboard techniques. The plate was incubated for 2 hours at 37° C., washed 4 times with Tris buffered saline containing Tween 20 (TBST) and tapped dry. Standard solutions of 2-oxo-3-hydroxy-LSD were prepared in TBST at 0, 10, 50, 100, 250, 500, 1000 and 2000 ng/ml and 50 μl of each was added to the appropriate wells (FIG. 4). The conjugate (detection reagent) of the present invention was diluted in Tris buffer (pH7.2) containing EDTA, D-mannitol, sucrose, thimerosal and BSA, the appropriate dilution being determined by standard ELISA chequerboard techniques, and 75 μl was added to the appropriate wells (FIG. 4). The plate was incubated at 37° C. for 2 hours. Excess unbound conjugate was removed by washing 6 times over a 10 minute period with TBST.
125 μl of tetramethylbenzidine (TMB) substrate solution was added to each well of the plate, which was then incubated for 15 to 20 minutes in the dark at room temperature. The reaction was terminated by addition of 125 μl 0.2M H2SO4 to each well. The absorbance was then measured at 450 nm using a microtiter plate reader.
Standard solutions of LSD and its metabolites were prepared in TBST at 0, 10.0, 50.0, 100.0, 250.0, 500.0, 1000 and 2000 ng/ml. Employing each series of standards in the present competitive ELISA, calibration curves were generated and these were used to determine the cross-reactivity of the immunoassays with LSD and its metabolites, cross-reactivity being calculated according to the following formula: % CR=IC502-oxo/IC50LSD×100 where % CR is the percentage cross-reactivity, IC502-oxo is the concentration of 2-oxo-3-hydroxy-LSD that causes 50% displacement of signal and IC50LSD is the concentration of LSD or LSD metabolite that causes 50% displacement of signal.

[5] = human urine; cited from earlier work
[6] = in vivo; cited from earlier work
[7] = test system: antibodies obtained in EP 1 148 339 A2; settings: when compared to 2-oxo-3-hydroxy-LSD; cited from earlier work
[8] = in vivo; cited from earlier work; remark: listed apart in the source

| SMILES | cross-reactivity [1] [%] | cross-reactivity [2] [%] | cross-reactivity [3] [%] | specificity / cross-reactivity of the assay, in words [4] | % CR, percentage cross-reactivity based on specificity to 2-oxo-3-hydroxy LSD [4] [%] | % B/B0 ([4]; standard 10 ng/ml) [%] | A450 ([4]; standard 10 ng/ml) | % B/B0 ([4]; standard 50 ng/ml) [%] | A450 ([4]; standard 50 ng/ml) | % B/B0 ([4]; standard 100 ng/ml) [%] | A450 ([4]; standard 100 ng/ml) | % B/B0 ([4]; standard 250 ng/ml) [%] | A450 ([4]; standard 250 ng/ml) | % B/B0 ([4]; standard 500 ng/ml) [%] | A450 ([4]; standard 500 ng/ml) | % B/B0 ([4]; standard 1000 ng/ml) [%] | A450 ([4]; standard 1000 ng/ml) | % B/B0 ([4]; standard 2000 ng/ml) [%] | A450 ([4]; standard 2000 ng/ml) | cross-reactivity [7] | other results |
| --- | --- | --- | --- | --- | --- | --- | --- | --- | --- | --- | --- | --- | --- | --- | --- | --- | --- | --- | --- | --- | --- |
| CCN(CC)C(=O)[C@@H]1C=C2c3cccc4c3C(O)(C[C@H]2N(C)C1)C(=O)N4 (stereo partly drawn) [2-Oxo-3-Hydroxy-LSD, 2-oxo-3-hydroxy-LSD] | 1.82 | 50 | < 20 | highly specific | 100 | 78.47 | 1.396 | 59.36 | 1.056 | 50.08 | 0.891 | 37.10 | 0.660 | 28.89 | 0.514 | 21.98 | 0.391 | 17.88 | 0.318 | – | average concentration relative to that of LSD [5]: 20 times |
| CCN(CC)C(=O)[C@H]1C=C2c3cccc4[nH]cc(c34)C[C@H]2N(C)C1 [d-iso-LSD] | 0.04 | – | – | – | – | – | – | – | – | – | – | – | – | – | – | – | – | – | – | – | hallucinogenic activity, in words [6]: inactive |
| CCN(CC)C(=O)[C@@H]1C=C2c3cccc4[nH]cc(c34)C[C@H]2N(C)C1 [LSD, Lysergic acid diethylamide] | – | 100 | 100 | very low levels of cross-reactivity | <5 | 99.28 | 1.792 | 98.45 | 1.777 | 98.34 | 1.775 | 96.40 | 1.740 | 91.58 | 1.653 | 87.09 | 1.572 | 80.50 | 1.453 | 74.9–84.4% | potency as hallucinogen relative to mescaline [6]: 4500–9275 times; potency as hallucinogen relative to psilocybin [6]: 10–150 times; excreted unchanged in urine [8]: less than 1% |
| CCN(CC)C(=O)[C@@H]1C=C2c3cccc4[nH]cc(c34)C[C@H]2NC1 [Nor LSD, nor-LSD] | – | 20 | 40 | very low levels of cross-reactivity | <5 | 99.0 | 1.772 | 98.7 | 1.767 | 98.5 | 1.763 | 97.1 | 1.738 | 94.2 | 1.686 | 91.5 | 1.638 | 86.7 | 1.552 | 1.8–4.6% | – |
